Experimental data: the supplement of paper PMC10307832

Key:
Assay in all cases: relative viability (nuclei count vs DMSO), 5 days (fraction); higher = more cells survive
Pictilisib + OSI-027 = compound: CS(=O)(=O)N1CCN(Cc2cc3nc(-c4cccc5[nH]ncc45)nc(N4CCOCC4)c3s2)CC1 [Pictilisib] + COc1cccc2cc(-c3nc([C@H]4CC[C@H](C(=O)O)CC4)n4ncnc(N)c34)[nH]c12 [OSI-027] (partner 0.5 µM)
Outline: (§1)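 Relative viability was taken as the ratio of nuclei in treated wells to nuclei in vehicle wells. Lung cancer cell lines in 1536-well plates received compounds by pin tool one day after seeding, either one drug alone or a fixed anchor-drug dose plus five library-drug doses (not always all listed) in √10 steps. Nuclei were counted on 4× images after 5 days of treatment, and values are medians of duplicate plates.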

MK-2206 + Alpelisib = compound: NC1(c2ccc(-c3nc4ccn5c(=O)[nH]nc5c4cc3-c3ccccc3)cc2)CCC1 [MK-2206] + Cc1nc(NC(=O)N2CCC[C@H]2C(N)=O)sc1-c1ccnc(C(C)(C)C(F)(F)F)c1 [Alpelisib] (partner 2 µM)
Outline: as §1

MK-2206 + Foretinib = compound: NC1(c2ccc(-c3nc4ccn5c(=O)[nH]nc5c4cc3-c3ccccc3)cc2)CCC1 [MK-2206] + COc1cc2c(Oc3ccc(NC(=O)C4(C(=O)Nc5ccc(F)cc5)CC4)cc3F)ccnc2cc1OCCCN1CCOCC1 [Foretinib] (partner 0.25 µM)
Outline: as §1

MK-2206 + Dasatinib = compound: NC1(c2ccc(-c3nc4ccn5c(=O)[nH]nc5c4cc3-c3ccccc3)cc2)CCC1 [MK-2206] + Cc1nc(Nc2ncc(C(=O)Nc3c(C)cccc3Cl)s2)cc(N2CCN(CCO)CC2)n1 [Dasatinib] (partner 0.075 µM)
Outline: as §1

Row | Cell Line | relative viability (Pictilisib + OSI-027; first compound 0.02 µM) | relative viability (Pictilisib + OSI-027; first compound 0.06325 µM) | relative viability (Pictilisib + OSI-027; first compound 0.6325 µM) | relative viability (Pictilisib + OSI-027; first compound 2 µM) | relative viability (MK-2206 + Alpelisib; first compound 0.01 µM) | relative viability (MK-2206 + Alpelisib; first compound 0.03162 µM) | relative viability (MK-2206 + Alpelisib; first compound 0.3162 µM) | relative viability (MK-2206 + Alpelisib; first compound 1 µM) | relative viability (MK-2206 + Foretinib; first compound 0.01 µM) | relative viability (MK-2206 + Foretinib; first compound 0.03162 µM) | relative viability (MK-2206 + Foretinib; first compound 0.3162 µM) | relative viability (MK-2206 + Foretinib; first compound 1 µM) | relative viability (MK-2206 + Dasatinib; first compound 0.01 µM) | relative viability (MK-2206 + Dasatinib; first compound 0.03162 µM) | relative viability (MK-2206 + Dasatinib; first compound 0.3162 µM) | relative viability (MK-2206 + Dasatinib; first compound 1 µM)
1 | HCC-44 | 0.587 | 0.5 | 0.405 | 0.266 | 0.784 | 0.767 | 0.633 | 0.59 |  |  |  |  |  |  |  | 
2 | RERF-LC-KJ | 0.531 | 0.559 | 0.402 | 0.371 | 0.922 | 0.802 | 0.663 | 0.697 | 0.868 | 0.861 | 0.82 | 0.77 | 0.788 | 0.796 | 0.607 | 0.626
3 | NCI-H1975 | 0.867 | 0.574 | 0.234 | 0.212 | 0.657 | 0.551 | 0.509 | 0.487 | 1.08 | 0.96 | 0.91 | 0.801 | 0.4 | 0.346 | 0.292 | 0.341
4 | IA-LM |  |  |  |  | 0.809 | 0.869 | 0.578 | 0.544 | 1.06 | 1.11 | 1.07 | 1.19 |  |  |  | 
5 | LCLC-97TM1 | 0.4 | 0.488 | 0.301 | 0.253 | 0.316 | 0.261 | 0.185 | 0.204 | 0.881 | 0.929 | 0.887 | 0.804 | 0.847 | 0.858 | 0.893 | 0.898
6 | NCI-H520 | 0.239 | 0.332 | 0.156 | 0.171 | 0.939 | 0.819 | 0.561 | 0.355 | 0.785 | 1.16 | 0.332 | 0.28 | 0.179 | 0.178 | 0.189 | 0.18
7 | A-427 | 0.492 | 0.405 | 0.393 | 0.351 | 1.12 | 1.12 | 1.06 | 1.08 | 1.05 | 1.2 | 1.16 | 1.15 | 0.698 | 0.735 | 0.698 | 0.596
8 | ABC-1 | 0.434 | 0.462 | 0.337 | 0.335 | 0.964 | 0.915 | 0.848 | 0.812 | 1.16 | 0.965 | 1.17 | 1.07 | 0.499 | 0.534 | 0.388 | 0.399
9 | NCI-H460 | 0.612 | 0.576 | 0.212 | 0.0454 | 0.481 | 0.419 | 0.256 | 0.231 | 0.984 | 1.06 | 1.1 | 1.04 | 0.417 | 0.579 | 0.37 | 0.338
10 | NCI-H1395 | 0.796 | 0.658 | 0.568 | 0.392 | 1.1 | 1.13 | 0.926 | 0.825 | 1.03 | 0.966 | 0.885 | 0.922 | 0.435 | 0.399 | 0.413 | 0.362
11 | EBC-1 |  |  |  |  | 0.767 | 0.843 | 0.388 | 0.28 | 0.0881 | 0.12 | 0.117 | 0.106 |  |  |  | 
12 | NCI-H23 | 0.708 | 0.625 | 0.392 | 0.25 | 0.705 | 0.805 | 0.784 | 0.779 | 1.1 | 1.11 | 1.05 | 0.902 | 0.808 | 0.845 | 0.787 | 0.423
13 | LOU-NH91 | 0.747 | 0.757 | 0.666 | 0.464 | 0.73 | 0.796 | 0.667 | 0.682 | 0.984 | 0.958 | 0.927 | 0.917 | 0.628 | 0.638 | 0.571 | 0.375
14 | NCI-H2009 | 0.656 | 0.583 | 0.319 | 0.188 | 1.16 | 1.17 | 1.14 | 1.12 | 1.26 | 1.18 | 1.24 | 1.16 | 0.296 | 0.309 | 0.287 | 0.325
15 | ChaGo-K-1 | 0.586 | 0.626 | 0.411 | 0.314 |  |  |  |  | 0.969 | 0.974 | 0.922 | 0.93 | 0.61 | 0.721 | 0.55 | 0.447
16 | A549 |  |  |  |  | 0.841 | 0.791 | 0.534 | 0.529 | 0.752 | 0.817 | 0.914 | 0.907 |  |  |  | 
17 | NCI-H1703 |  |  |  |  | 0.355 | 0.366 | 0.317 | 0.416 | 0.368 | 0.309 | 0.377 | 0.333 |  |  |  | 
18 | NCI-H1299 |  |  |  |  | 1.03 | 1.05 | 1.03 | 1.03 | 1.15 | 1.06 | 1.15 | 1.16 |  |  |  | 
19 | NCI-H522 | 0.635 | 0.719 | 0.64 | 0.57 |  |  |  |  |  |  |  |  | 0.98 | 0.842 | 0.857 | 0.894
20 | NCI-H1648 | 0.256 | 0.248 | 0.275 | 0.266 |  |  |  |  |  |  |  |  |  |  |  | 
21 | NCI-H1623 | 0.431 | 0.414 | 0.342 | 0.244 |  |  |  |  | 0.844 | 0.958 | 0.795 | 0.832 | 0.518 | 0.471 | 0.556 | 0.423
